Measured values taken from US20210275514A1, “COMPOUNDS FOR USE IN TREATING KIDNEY DISORDERS” (Hoffmann-La Roche Inc., priority 2018, published 2021).
“Also recorded” adds a separate entry of the source.

Tests used:
db/db mice = assay: DKD mouse model; format: in vivo; details: 30 mg/Kg once daily; for albuminuria (albumin to creatinine ratio): vs db/db vehicle
Experimental: B6.BKS^db/db and B6.BKS^db/+ mice were purchased from the Jackson laboratory. At the age of 14 weeks, mice started receiving vehicle or the ABCA1 inducer Cpd A (30 mg/Kg) by oral gavage once daily for 4 weeks. Body weight measurements and urine collection was performed every week. Mice were sacrificed at 18 weeks old, blood was collected and tissues were processed and analyzed as described below.
(§1) Spot urine samples were collected for all mice at baseline and time of sacrifice. Urinary albumin and creatinine were determined using an albumin ELISA kit (Bethyl laboratories) and a colorimetric assay for creatinine determination (Stanbio). Albuminuria was calculated and expressed as μg of albumin divided by mg of creatinine. For diabetic mouse model, weight and glycaemia were measured on a bi-weekly basis.
Kidney cortex sections were embedded in OCT for further analysis of immunofluorescent staining and lipid droplet. Specifically, for determination of podocyte number per glomerular cross-section was determined using 4 μm-thick tissue sections that were cut and stained with WT1 antibody (1:200, Santa Cruz) and prolong GOLD DAPI mounting media. Images were acquired with confocal microscopy using a Leica SP5 inverted microscope with the 40× wet objective. 20 glomeruli per mouse were quantified.
Electron microscopy. For transmission electron microscopy kidney cortex sections were placed in 4% paraformaldehyde, 1% gluteraldehyde in 0.1 M phosphate buffer (pH 7.4). Foot processes were quantified per 1 μm of the glomerular basement membrane.
(§2) Renal lipids species assays. Kidney cortex sections were snap frozen and utilized for lipid extraction and cholesterol content determination. The tissue was homogenized in 2 mM potassium phosphate buffer in a glass douncer on ice. Lipids in 100 μl homogenate (˜5-10 mg tissue) were extracted with 1 ml hexane:isopropanol (3:2) for two sequential 30-minute extractions. The solvent containing lipids was then dried in Nitrogen atmosphere. Lipids were then reconstituted using isopropanol: NP-40 (9:1) and cholesterol content was quantified using the Amplex red cholesterol assay kit (Invitrogen) according to the manufacturers protocol. Triglycerides in lipid extracts were assayed with a colorimetric kit according to manufacturer's instructions (Cayman). Total cholesterol and cholesterol esters were assayed using an enzymatic fluorometric method. For total cholesterol renal lipid extracts were diluted in assay buffer (100 mM potassium phosphate, 50 mM NaCl, 5 mM cholic acid, 0.1% […], pH 7.4) and incubated with same buffer supplemented with a final concentration of 1 U/ml cholesterol oxidase, 1 U/ml cholesterol esterase, 1 U/ml horseradish peroxidase, and 75 μM Amplex Red. The reactions were incubated at 37° C. for 30 min in a black opaque 96 well plate (Greiner) and fluorescence was measured in a microplate reader (Spectramax i3X, Molecular Devices) using 530 nm excitation and 580 emission.
(§3) Cholesterol esters were assayed using a direct method described by Mizoguchi et al (Mizoguchi, 2004). Briefly 150 μl of FC decomposition reagent (45 U/ml bovine catalase and 1 U/ml cholesterol oxidase, in assay buffer described above) was added to 25 μl of sample containing up to 1 mM total cholesterol. Free cholesterol was allowed to decompose overnight at 37° C. and then 75 μl of 4× cholesterol ester detection reagent (1 U/ml cholesterol oxidase, 4 U/ml cholesterol esterase, 24 U/ml horseradish peroxidase, 300 μM Amplex Red) was added. Reaction was incubated at 37° C. for 30 min and fluorescence was measured as described above for total cholesterol. 1 mM of cholesterol and 5 μM of cholesterol oleate standards were included as internal controls to validate assay sensibility and specificity.
Pathological evaluation. Kidney cortex sections were paraffin-embedded and cut at 4 μm thick for periodic acid-Schiff (PAS) and HE. […]

129 Col4a3 KO mice = assay: Alport mouse model, treatment from 4 weeks of age; format: in vivo
Experimental: 129 Col4a3^tm1/Dec/J mice were purchased from Jackson Labs and bred to generate Col4a3 KO mice. Mice were genotyped and selected using the primers: F ([…]), R ([…]) and Rm ([…]) in a PCR reaction (94 C for 5 min, followed by 30 cycles of 30 sec at 95 C, 15 sec at 60 C and 30 sec 72 C, and 1 min at 72 C). 129 Col4A3-KO mice were divided into two groups of 5 mice (males and females) each. At the age of 4 weeks, mice started receiving either vehicle or Cpd G (100 mg/Kg) by oral gavage once daily for 4 weeks. Body weight measurements and spot urine collection was performed once a week. Animals were sacrificed at the end of the treatment at the age of 8 weeks. A late study was also performed to evaluate if treatment of Col4A3-KO mice at time of established disease would prolong mice survival. In this study, mice were treated with Cpd G (100 mg/Kg/day) by daily oral gavage starting at 6 weeks of age and survival was assessed.
as §1
Lipid droplet staining Filtered Oil-Red O-Isopropanol solution (Electron Microscopy Science, PA) was diluted with water (6:4). 4 μm kidney sections were incubated with 100 μl freshly prepared Oil-Red O solution (ORO) for 15 minutes and counterstained with Hematoxylin Harris Hg Free (VWR, PA) to detect lipid deposition. Glomeruli staining was evaluated using a light microscope (Olympus BX 41, Tokyo, Japan).
as §2
as §3, with “specificity. […]” for “specificity.”

[1] = 100 mg/Kg once daily, 4 weeks from age 4 weeks, vs vehicle

| Compound | Blood urea nitrogen (BUN) (db/db mice; 4 weeks) | cholesterol esters in kidney cortex (db/db mice; 4 weeks) | mesangial expansion (PAS stained sections) (db/db mice; 4 weeks) | podocyte foot process effacement (TEM) (db/db mice; 4 weeks) | podocyte number (WT1 positive cells) (db/db mice; 4 weeks) | albuminuria (albumin to creatinine ratio) (db/db mice; after four weeks of treatment (18 weeks)) | albuminuria (albumin to creatinine ratio) (db/db mice; after two weeks of treatment (16 weeks)) | progression to ESRD (129 Col4a3 KO mice; 100 mg/Kg once daily, 4 weeks from age 4 weeks) | Albuminuria (129 Col4a3 KO mice; [1]) | BUN (129 Col4a3 KO mice; [1]) | Body weight loss (129 Col4a3 KO mice; [1]) | mesangial expansion (PAS-stained kidney sections) (129 Col4a3 KO mice; [1]) | serum creatinine (129 Col4a3 KO mice; [1]) | lipid accumulation in kidney cortex sections (Oil-red O staining) (129 Col4a3 KO mice; 8 week old mice, 28 days treatment) | cholesterol ester in kidneys (129 Col4a3 KO mice; 8 week old mice, 28 days treatment, normalized to total protein) |
| --- | --- | --- | --- | --- | --- | --- | --- | --- | --- | --- | --- | --- | --- | --- | --- |
| O=C(N[C@@H]1CCCC[C@H]1O)c1ccc(OCC(F)(F)F)c(-c2ccc(Cl)c(Cl)c2)n1 [Cpd A, 6-(3,4-Dichlorophenyl)-N-[(1R,2R)-2-hydroxycyclohexyl]-5-(2,2,2-trifluoroethoxy)pyridine-2-carboxamide] | significantly improved | significant reduction | improved | improved | improved | even further reduction | reduction in albuminuria |  |  |  |  |  |  |  |  |
| O=C(N[C@@H]1CCCC[C@H]1O)c1cnc(OCC(F)(F)F)c(-c2ccc(Cl)c(Cl)c2)c1 [Cpd G, 5-(3,4-dichloro-phenyl)-N-((1R,2R)-2-hydroxy-cyclohexyl)-6-(2,2,2-trifluoro-ethoxy)-nicotinamide] |  |  |  |  |  |  |  | delays progression to end stage renal disease; also recorded: delayed progression to ESRD | significantly less | significantly less | lost less weight | significantly less mesangial expansion | significantly less | reduced | reduces esterified cholesterol accumulation; also recorded: significantly reduced |
